Results on 52 compounds are retold here after patent publication US9510592B2, “Pesticidal compositions and processes related thereto” (Dow AgroSciences LLC, priority 2012, dated 2016).

Each structure is given as a SMILES string.

The test system of this assay is Beet Armyworm (Spodoptera exigua). As to the kind of experiment: Bioassay on Beet Armyworm (BAW), 128-well diet tray assay. Conditions: percent mortality of second instar larvae, 50 μg/cm^2 on artificial diet, five to seven days, 25° C.; Table 3. It is filed as in vivo. As to the method: Certain molecules disclosed in this document were tested against BAW and CEW and CL using procedures described in the following examples. In the reporting of the results, the “BAW & CEW & CL Rating Table” was used (See Table Section).
Bioassays on BAW (Spodoptera exigua)
Bioassays on BAW were conducted using a 128-well diet tray assay. one to five second instar BAW larvae were placed in each well (3 mL) of the diet tray that had been previously filled with 1 mL of artificial diet to which 50 μg/cm^2 of the test compound (dissolved in 50 μL of 90:10 acetone-water mixture) had been applied (to each of eight wells) and then allowed to dry. Trays were covered with a clear self-adhesive cover, and held at 25° C., 14:10 light-dark for five to seven days. Percent mortality was recorded for the larvae in each well; activity in the eight wells was then averaged. The results are indicated in the table entitled “Table 3: Assay Results” (See Table Section).
As for `COc1c(Cl)cc(C(/C=C/c2ccc(-n3cncn3)c(C#N)c2)C(F)(F)F)cc1Cl` (stereo not shown) [DC34], the “BAW Rating” value is recorded as “A (50-100)”.

With `Cc1cc(/C=C/C(c2cc(Cl)cc(Cl)c2)C(F)(F)F)ccc1C(=O)NCc1ccc(Cl)nc1` (stereo not shown) [AC7], the “BAW Rating” value is “A (50-100)”.

As for `O=C(CC(F)(F)F)NCC(=O)n1ccc2cc(/C=C/C(c3cc(Cl)c(F)c(Cl)c3)C(F)(F)F)ccc21` (stereo not shown) [BC13, (E)-N-(2-(5-(3-(3,5-Dichloro-4-fluorophenyl)-4,4,4-trifluorobut-1-en-1-yl)-1H-indol-1-yl)-2-oxoethyl)-3,3,3-trifluoropropanamide], the “BAW Rating” value is given as “A (50-100)”.

For the compound `O=C(NCc1ccc(Cl)nc1)c1ccc(/C=C/C(c2cc(Cl)c(Cl)c(Cl)c2)C(F)(F)F)cc1C(F)(F)F` (stereo not shown) [AC36], the “BAW Rating” value is given as “A (50-100)”.

In the case of `Cc1cc(/C=C/C(c2ccc(Cl)c(Cl)c2)C(F)(F)F)ccc1C(=O)NCc1ccc(Cl)nc1` (stereo not shown) [AC37], the “BAW Rating” value was “A (50-100)”.

Turning to `O=C(CC(F)(F)F)NCc1ccc(/C=C/C(c2cc(Cl)c(Cl)c(Cl)c2)C(F)(F)F)cc1` (stereo not shown) [CC6], the “BAW Rating” value is on record as “A (50-100)”.

For `Fc1cc(F)cc(C(/C=C/c2ccc(-n3cncn3)cc2)C(F)(F)F)c1` (stereo not shown) [DC8], the “BAW Rating” value is recorded as “A (50-100)”.

As for `O=C(NCCc1ccc(Cl)nc1)c1ccc(/C=C/C(c2cc(Cl)c(Cl)c(Cl)c2)C(F)(F)F)cc1Br` (stereo not shown) [AC113], the “BAW Rating” value is “B (More than 0-Less than 50)”.

Turning to `O=C(NCc1ccc(Cl)nc1)c1ccc(/C=C/C(c2cc(Cl)cc(Cl)c2)C(F)(F)F)cc1F` (stereo not shown) [AC49], the “BAW Rating” value is on record as “A (50-100)”.

For the compound `Cc1cc(/C=C/C(c2cc(Cl)cc(Cl)c2)C(F)(F)F)ccc1C(=O)NCc1nccn1C` (stereo not shown) [AC50], the “BAW Rating” value is listed as “A (50-100)”.

For the compound `Cc1cc(/C=C/C(c2cc(Cl)c(Cl)c(Cl)c2)C(F)(F)F)ccc1-n1cncn1` (stereo not shown) [DC63], the “BAW Rating” value was “A (50-100)”.

Turning to `O=C(NC1CSC1)c1ccc(/C=C/C(c2cc(Cl)c(Cl)c(Cl)c2)C(F)(F)F)cc1Cl` (stereo not shown) [AC29], the “BAW Rating” value is on record as “A (50-100)”.

In the case of `CSCCC(=O)NCc1ccc(/C=C/C(c2cc(Cl)c(Cl)c(Cl)c2)C(F)(F)F)cc1Cl` (stereo not shown) [CC19], the “BAW Rating” value is listed as “A (50-100)”.

Regarding `N#Cc1cc(/C=C/C(c2cc(Cl)cc(Cl)c2)C(F)(F)F)ccc1-n1cnc(N)n1` (stereo not shown) [DC38], the “BAW Rating” value is listed as “A (50-100)”.

With `O=C(NOc1ccc(/C=C/C(c2cc(Cl)c(Cl)c(Cl)c2)C(F)(F)F)cc1)C1CC1` (stereo not shown) [CC52, (E)-N-(4-(4,4,4-Trifluoro-3-(3,4,5-trichlorophenyl)but-1-en-1-yl)phenoxy)cyclopropanecarboxamide], the “BAW Rating” value was “A (50-100)”.

As to `Cc1cc(/C=C/C(c2cc(Cl)cc(Cl)c2)C(F)(F)F)ccc1C(=O)NCC(=O)NC1CC1` (stereo not shown) [AC40], the “BAW Rating” value was “A (50-100)”.

As to `Cc1cc(/C=C/C(c2cc(Cl)cc(Cl)c2)C(F)(F)F)ccc1C(=O)NCC1CCCO1` (stereo not shown) [AC118], the “BAW Rating” value is given as “A (50-100)”.

Consider `CC(=O)N1CCC(NC(=O)c2ccc(/C=C/C(c3cc(Cl)c(Cl)c(Cl)c3)C(F)(F)F)cc2Br)CC1` (stereo not shown) [AC103, (E)-N-(1-Acetylpiperidin-4-yl)-2-bromo-4-(4,4,4-trifluoro-3-(3,4,5-trichlorophenyl)but-1-en-1-yl)benzamide], for which the “BAW Rating” value was “A (50-100)”.

For the compound `CC(=O)NCc1ccc(/C=C/C(c2cc(Cl)cc(Cl)c2)C(F)(F)F)cc1Cl` (stereo not shown) [CC7, (E)-N-(2-Chloro-4-(3-(3,5-dichlorophenyl)-4,4,4-trifluorobut-1-en-1-yl)benzyl)acetamide], the “BAW Rating” value is reported as “A (50-100)”.

As for `C=CCNC(=S)NCc1ccc(/C=C/C(c2cc(Cl)c(Cl)c(Cl)c2)C(F)(F)F)cc1Cl` (stereo not shown) [CC38], the “BAW Rating” value is given as “A (50-100)”.

Consider `O=C(NCc1ccc(Cl)nc1)c1ccc(/C=C/C(c2cc(Cl)c(Cl)c(Cl)c2)C(F)(F)F)cc1Br` (stereo not shown) [AC31], for which the “BAW Rating” value is on record as “A (50-100)”.

With `Cc1cc(/C=C/C(c2cc(Cl)cc(Cl)c2)C(F)(F)F)ccc1C(=O)NC(C)(C)c1ccccn1` (stereo not shown) [AC16], the “BAW Rating” value is on record as “A (50-100)”.

With `O=C(CNC(=O)c1ccc(/C=C/C(c2ccc(F)c(Cl)c2)C(F)(F)F)cc1Br)NCC(F)(F)F` (stereo not shown) [AC99], the “BAW Rating” value is given as “A (50-100)”.

Take `CCc1cc(/C=C/C(c2cc(Cl)c(F)c(Cl)c2)C(F)(F)F)ccc1C(=O)NCC(=O)NCC(F)(F)F` (stereo not shown) [AC80]: the “BAW Rating” value was “A (50-100)”.

Take `Cc1cc(/C=C/C(c2cc(Cl)cc(Cl)c2)C(F)(F)F)ccc1C(=O)NC1CS(=O)(=O)C1` (stereo not shown) [AC13]: the “BAW Rating” value was “A (50-100)”.

In the case of `Cc1cc(/C=C/C(c2cc(Cl)cc(Cl)c2)C(F)(F)F)ccc1C(=O)Nc1ccc(Cl)nc1` (stereo not shown) [AC59], the “BAW Rating” value is listed as “A (50-100)”.

Take `O=C(NC1CSC1)c1ccc(/C=C/C(c2cc(Cl)cc(Cl)c2)C(F)(F)F)cc1F` (stereo not shown) [AC61]: the “BAW Rating” value is “A (50-100)”.

In the case of `O=C(CC(F)(F)F)NCc1ccc(/C=C/C(c2cc(Cl)cc(Cl)c2)C(F)(F)F)cc1` (stereo not shown) [CC3], the “BAW Rating” value is on record as “A (50-100)”.

In the case of `Cc1cc(/C=C/C(c2cc(Cl)c(F)c(Cl)c2)C(F)(F)F)ccc1C(=O)NCc1ccc(Cl)nc1` (stereo not shown) [AC38], the “BAW Rating” value is listed as “A (50-100)”.

Regarding `O=C(CNC(=S)c1ccc(/C=C/C(c2cc(Cl)c(Cl)c(Cl)c2)C(F)(F)F)cc1Br)NCC(F)(F)F` (stereo not shown) [AC91, (E)-2-(2-Bromo-4-(4,4,4-trifluoro-3-(3,4,5-trichlorophenyl)but-1-en-1-yl)phenylthioamido)-N-(2,2,2-trifluoroethyl)acetamide], the “BAW Rating” value is reported as “A (50-100)”.

`Cc1cc(/C=C/C(c2cc(Cl)cc(Cl)c2)C(F)(F)F)ccc1C(=O)NCc1nnc(C2CC2)o1` (stereo not shown) [AC89, (E)-N-((5-Cyclopropyl-1,3,4-oxadiazol-2-yl)methyl)-4-(3-(3,5-dichlorophenyl)-4,4,4-trifluorobut-1-en-1-yl)-2-methylbenzamide]: the “BAW Rating” value is “A (50-100)”.

As for `O=C(NCc1ccc(/C=C/C(c2cc(Cl)c(Cl)c(Cl)c2)C(F)(F)F)cc1Cl)N1CCOCC1` (stereo not shown) [CC34], the “BAW Rating” value was “A (50-100)”.

Take `FC(F)(F)CNC(=S)CNC(=S)c1ccc(/C=C/C(c2cc(Cl)c(Cl)c(Cl)c2)C(F)(F)F)cc1Br` (stereo not shown) [AC90, (E)-2-Bromo-N-(2-thioxo-2-((2,2,2-trifluoroethyl)amino)ethyl)-4-(4,4,4-trifluoro-3-(3,4,5-trichlorophenyl)but-1-en-1-yl)benzothioamide]: the “BAW Rating” value is “A (50-100)”.

For the compound `O=C(NCc1ccc(/C=C/C(c2cc(Cl)cc(Cl)c2)C(F)(F)F)cc1)C1CC1` (stereo not shown) [CC2], the “BAW Rating” value is “A (50-100)”.

With `O=C(CNC(=O)c1ccc(/C=C/C(c2cc(Cl)c(F)c(Cl)c2)C(F)(F)F)cc1Br)NCC(F)(F)F` (stereo not shown) [AC79, (E)-2-Bromo-4-(3-(3,5-dichloro-4-fluorophenyl)-4,4,4-trifluorobut-1-en-1-yl)-N-(2-oxo-2-((2,2,2-trifluoroethyl)amino)ethyl)benzamide], the “BAW Rating” value is listed as “A (50-100)”.

With `Cc1cc(/C=C/C(c2cc(Cl)cc(Cl)c2)C(F)(F)F)cc(C#N)c1-n1cncn1` (stereo not shown) [DC44], the “BAW Rating” value was “A (50-100)”.

Regarding `Cc1cc(/C=C/C(c2cc(Cl)cc(Cl)c2)C(F)(F)F)ccc1C(=O)NCc1ccc(Cl)cc1` (stereo not shown) [AC48], the “BAW Rating” value is “A (50-100)”.

`FC(F)(F)C(/C=C/c1ccc(-n2cncn2)c(Br)c1)c1cc(Cl)cc(Cl)c1` (stereo not shown) [DC47]: the “BAW Rating” value was “A (50-100)”.

Turning to `N#CCN1CCC(NC(=O)c2ccc(/C=C/C(c3cc(Cl)c(Cl)c(Cl)c3)C(F)(F)F)cc2Br)CC1` (stereo not shown) [AC107], the “BAW Rating” value was “B (More than 0-Less than 50)”.

In the case of `Cc1cc(/C=C/C(c2cc(Cl)cc(Cl)c2)C(F)(F)F)ccc1C(=O)NCc1ccccn1` (stereo not shown) [AC12], the “BAW Rating” value is on record as “A (50-100)”.

As to `Fc1cc(/C=C/C(c2cc(Cl)cc(Cl)c2)C(F)(F)F)ccc1-n1cncn1` (stereo not shown) [DC48], the “BAW Rating” value is “A (50-100)”.

`Cc1cc(/C=C/C(c2cc(Cl)c(Cl)c(Cl)c2)C(F)(F)F)ccc1C(=O)NC1CSC1` (stereo not shown) [AC23]: the “BAW Rating” value is reported as “A (50-100)”.

Take `O=C(NCc1ccc(/C=C/C(c2cc(Cl)cc(Cl)c2)C(F)(F)F)cc1C(F)(F)F)C1CC1` (stereo not shown) [CC21]: the “BAW Rating” value is reported as “A (50-100)”.

For `O=C(NC1CS(=O)(=O)C1)c1ccc(/C=C/C(c2cc(Cl)c(Cl)c(Cl)c2)C(F)(F)F)cc1Br` (stereo not shown) [AC33], the “BAW Rating” value is given as “A (50-100)”.

Turning to `O=C(NCc1ncc(/C=C/C(c2cc(Cl)c(Cl)c(Cl)c2)C(F)(F)F)cc1Cl)C1CC1` (stereo not shown) [CC45], the “BAW Rating” value is “A (50-100)”.

With `O=C(NCc1ccc(/C=C/C(c2cc(Cl)c(Cl)c(Cl)c2)C(F)(F)F)cc1F)C1CC1` (stereo not shown) [CC28], the “BAW Rating” value was “A (50-100)”.

For `Cc1cc(C)cc(C(/C=C/c2ccc(-n3cncn3)cc2)C(F)(F)F)c1` (stereo not shown) [DC11], the “BAW Rating” value was “A (50-100)”.

Take `O=C(NCc1ccc(/C=C/C(c2cc(Cl)c(Cl)c(Cl)c2)C(F)(F)F)cc1Cl)C1CC1` (stereo not shown) [CC11]: the “BAW Rating” value is recorded as “A (50-100)”.

With `O=C(CC(F)(F)F)NCc1ccc(/C=C/C(c2cc(Cl)cc(Cl)c2)C(F)(F)F)cc1Cl` (stereo not shown) [CC9], the “BAW Rating” value was “A (50-100)”.

For `O=C(CNC(=O)c1ccc(/C=C/C(c2cc(Cl)c(F)c(Cl)c2)C(F)(F)F)cc1F)NCC(F)(F)F` (stereo not shown) [AC68], the “BAW Rating” value is given as “A (50-100)”.

On to `O=C(NC1CCN(C(=O)CC(F)(F)F)CC1)c1ccc(/C=C/C(c2cc(Cl)c(Cl)c(Cl)c2)C(F)(F)F)cc1Br` (stereo not shown) [AC104, (E)-2-Bromo-4-(4,4,4-trifluoro-3-(3,4,5-trichlorophenyl)but-1-en-1-yl)-N-(1-(3,3,3-trifluoropropanoyl)piperidin-4-yl)benzamide], for which the “BAW Rating” value was “A (50-100)”.

For the compound `C=CCNC(=O)CNC(=O)c1ccc(/C=C/C(c2cc(Cl)c(Cl)c(Cl)c2)C(F)(F)F)cc1Br` (stereo not shown) [AC111], the “BAW Rating” value was “A (50-100)”.
